This passage reports Activity and Rf results from ChEMBL document CHEMBL3271981, “Potential histamine H2-receptor antagonists. 3. Methylhistamines” (J Med Chem, 1976).

Calls of active or inactive are those of the source. The calls are words filed in the database; no cut-off is given here.

In data set [1] the test system is Rattus norvegicus. As to the kind of experiment: In vivo agonist activity at histamine H2 receptor in iv dosed anesthetized rat assessed as stimulation of gastric acid secretion relative to histamine. It is filed as functional, Stomach.
Data set [2] concerns the target Histamine H1 receptor (Cavia porcellus) (UniProt P31389). As to the kind of experiment: In vitro agonist activity at histamine H1 receptor in guinea pig ileum assessed as contractile response relative to histamine in presence of atropine. It is filed as tissue-based.
The nature of data set [3]: Retardation factor of the compound using MeOH-NH4OH-H2O at ratio of 6:1:1 as solvent system by thin layer chromatography. It is filed as physicochemical.
The nature of data set [4]: Retardation factor of the compound using EtOCH2CH2OH-HCl(11N)-H2O at ratio of 8:1:1 as solvent system by thin layer chromatography. Particulars: buffer. It counts as physicochemical.
Data set [5] has as its system Rattus norvegicus. As to the kind of experiment: In vivo antagonist activity at histamine H2 receptor in anesthetized rat assessed as inhibition of histamine-stimulated gastric acid secretion up to 256 umol/kg, iv. Particulars: Stomach. It counts as functional, organism-based.
In data set [6] the test system is Rattus norvegicus. Kind of data set: In vivo agonist activity at histamine H2 receptor in anesthetized rat assessed as stimulation of gastric acid secretion at 486 uml/kg, iv. Particulars: Stomach. It is filed as functional, organism-based.

Chain of Histamine H1 receptor (Cavia porcellus) (P31389 whole entry): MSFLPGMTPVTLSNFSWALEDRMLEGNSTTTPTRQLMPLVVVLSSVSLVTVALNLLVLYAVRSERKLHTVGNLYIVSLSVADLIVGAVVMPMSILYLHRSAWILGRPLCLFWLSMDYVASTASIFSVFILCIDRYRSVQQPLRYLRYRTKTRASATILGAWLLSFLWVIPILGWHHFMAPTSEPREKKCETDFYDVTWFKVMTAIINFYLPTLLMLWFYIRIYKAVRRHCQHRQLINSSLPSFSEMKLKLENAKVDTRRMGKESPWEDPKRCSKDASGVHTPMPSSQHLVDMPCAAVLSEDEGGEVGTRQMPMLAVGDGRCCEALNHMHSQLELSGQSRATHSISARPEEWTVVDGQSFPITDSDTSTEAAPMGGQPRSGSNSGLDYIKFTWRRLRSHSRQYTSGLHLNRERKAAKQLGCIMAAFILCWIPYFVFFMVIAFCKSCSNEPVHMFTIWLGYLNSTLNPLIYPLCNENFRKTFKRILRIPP

Take `Cc1ncc(CCN)[nH]1.Cl`: the Activity in the data set on Rattus norvegicus [1] worked out at 2%; in data set [2], 16.5%.

For the compound `CNCCc1cnc[nH]1.Cl`, the Rf worked out at 0.46 in data set [3] and 0.68 in data set [4]. The Activity is 74% in the data set with Rattus norvegicus [1] and 72% in data set [2].

With `CC(CN)c1cnc[nH]1.Cl` (stereo not given), the result in the data set on Rattus norvegicus [5] was inactive. Moreover, the Activity in the data set on Rattus norvegicus [1] was found to be 0.4%; in data set [2], 0.83%.

On to `Cl.Cl.Cn1cnc(CCN)c1` [N-METHYLHISTAMINE DIHYDROCHLORIDE], for which the result with Rattus norvegicus [5] was inactive. In addition, in data set [2], the Activity was 0.5%.

Take `NCCc1c[nH]cn1` [HISTAMINE]: the results for the Rf in data set [3] and in data set [4] were 0.52 and 0.7, respectively.

On to `CC(N)Cc1cnc[nH]1.Cl` (stereo not given), for which the outcome in the data set on Rattus norvegicus [5] was inactive. Besides, the Activity was found to be 0.8% in the data set with Rattus norvegicus [1] and 0.36% in data set [2].

As for `CC(C)(CN)c1cnc[nH]1`, the outcome in the data set on Rattus norvegicus [6] and in the data set on Rattus norvegicus [5] was inactive. Besides, the Activity in data set [2] is < 0.001%.

In the case of `Cc1ncc(CCN(C)C)[nH]1.Cl`, the results for the Activity (with Rattus norvegicus [1]; in data set [2]) were 1.4% and 16.8%, respectively.

Take `Cc1nc[nH]c1CCN(C)C.Cl`: the Rf in data set [3] came to 0.72; in data set [4], 0.57. The Activity with Rattus norvegicus [1] was found to be 3%; in data set [2], 0.1%.

As to `Cc1nc[nH]c1CCN.Cl`, the Rf in data set [3] came to 0.56; in data set [4], 0.7. Moreover, the Activity in the data set on Rattus norvegicus [1] was 39%; in data set [2], 0.23%.

For `CNCCc1[nH]cnc1C.Cl`, the values for the Rf in data set [3] and in data set [4] were 0.51 and 0.7, respectively. Also, the Activity in the data set with Rattus norvegicus [1] came to 8.2%; in data set [2], 0.16%.

Consider `CN(C)CCc1cnc[nH]1.Cl`, for which the Activity came to 19% in the data set on Rattus norvegicus [1] and 44% in data set [2].

Turning to `Cl.Cn1cncc1CCN`, the Rf in data set [3] is on record as 0.63; in data set [4] it was 0.56. Also, in the data set with Rattus norvegicus [5], the outcome was inactive. Moreover, the figures for the Activity (in the data set on Rattus norvegicus [1]; in data set [2]) were <0.2% and < 0.01%, respectively.
